Reference: article PMC10938783, “A novel pan-PI3K inhibitor KTC1101 synergizes with anti-PD-1 therapy by targeting tumor suppression and immune activation” (Molecular Cancer, 2024)

System: B16 cells gene expression
Experiment: RNA-Seq (DEGs, GSEA, heatmaps) of B16 cells
Settings: KTC1101 0.2μM, B16 cells, GSEA KEGG

COc1cc(N)cc2c1nc(C(F)F)n2-c1nc(N2CCCOCC2)nc(N2CCOCC2)n1 [KTC1101, 2-(difluoromethyl)-4-methoxy-1-(4-morpholino-6-(1,4-oxazepan-4-yl)-1,3,5-triazin-2-yl)-1H-benzo[d]imidazol-6-amine]
NES, mmu04970 Salivary secretion: 1.144 | NES, mmu04972 Pancreatic secretion: 0.9417 | NES, mmu05017 Spinocerebellar ataxia: -1.093 | NES, mmu05031 Amphetamine addiction: 1.031 | NES, mmu05034 Alcoholism: 0.984 | NES, mmu05100 Bacterial invasion of epithelial cells: 0.6338 | NES, mmu05132 Salmonella infection: -1.08 | NES, mmu05133 Pertussis: 0.6182 | NES, mmu05134 Legionellosis: 1.026 | NES, mmu05135 Yersinia infection: 0.5197 | NES, mmu05145 Toxoplasmosis: 1.047 | NES, mmu05160 Hepatitis C: -0.848 | NES, mmu05162 Measles: 1.0518 | NES, mmu05165 Human papillomavirus infection: 0.8359 | NES, mmu05170 Human immunodeficiency virus 1 infection: 0.8557 | NES, mmu05200 Pathways in cancer: 1.059 | NES, mmu05203 Viral carcinogenesis: 0.855 | NES, mmu05204 Chemical carcinogenesis - DNA adducts: -1.166 | NES, mmu05206 MicroRNAs in cancer: 1.025 | NES, mmu05207 Chemical carcinogenesis - receptor activation: 0.9371 | NES, mmu05210 Colorectal cancer: 0.7382 | NES, mmu05211 Renal cell carcinoma: -0.9675 | NES, mmu05212 Pancreatic cancer: -0.9022 | NES, mmu05213 Endometrial cancer: -1.003 | NES, mmu05214 Glioma: 0.9787 | NES, mmu05216 Thyroid cancer: 0.6447 | NES, mmu05218 Melanoma: 1.185 | NES, mmu05219 Bladder cancer: 0.8356 | NES, mmu05220 Chronic myeloid leukemia: 0.9551 | NES, mmu05223 Non-small cell lung cancer: -0.8178 | NES, mmu05231 Choline metabolism in cancer: 1.119 | NES, mmu05235 PD-L1 expression and PD-1 checkpoint pathway in cancer: 0.9645 | NES, mmu05412 Arrhythmogenic right ventricular cardiomyopathy: 1.0322 | NES, mmu05416 Viral myocarditis: 0.9628 | NES, mmu05417 Lipid and atherosclerosis: 1.128 | enrichmentScore, mmu00071 Fatty acid degradation: 0.2512 | enrichmentScore, mmu00310 Lysine degradation: -0.1985 | enrichmentScore, mmu00380 Tryptophan metabolism: 0.4505 | enrichmentScore, mmu00500 Starch and sucrose metabolism: -0.3977 | enrichmentScore, mmu00510 N-Glycan biosynthesis: -0.1868 | enrichmentScore, mmu00513 Various types of N-glycan biosynthesis: 0.3555 | enrichmentScore, mmu00514 Other types of O-glycan biosynthesis: 0.426 | enrichmentScore, mmu00562 Inositol phosphate metabolism: -0.271 | enrichmentScore, mmu00564 Glycerophospholipid metabolism: -0.1904 | enrichmentScore, mmu00600 Sphingolipid metabolism: -0.2721 | enrichmentScore, mmu00860 Porphyrin metabolism: -0.354 | enrichmentScore, mmu00980 Metabolism of xenobiotics by cytochrome P450: -0.3932 | enrichmentScore, mmu00982 Drug metabolism - cytochrome P450: -0.394 | enrichmentScore, mmu01250 Biosynthesis of nucleotide sugars: -0.3381 | enrichmentScore, mmu01522 Endocrine resistance: 0.2781 | enrichmentScore, mmu01523 Antifolate resistance: -0.26 | enrichmentScore, mmu02010 ABC transporters: -0.2376 | enrichmentScore, mmu03008 Ribosome biogenesis in eukaryotes: 0.1194 | enrichmentScore, mmu03015 mRNA surveillance pathway: -0.1312 | enrichmentScore, mmu03018 RNA degradation: -0.2392 | enrichmentScore, mmu03022 Basal transcription factors: -0.1746 | enrichmentScore, mmu03040 Spliceosome: -0.1926 | enrichmentScore, mmu03060 Protein export: -0.3667 | enrichmentScore, mmu03082 ATP-dependent chromatin remodeling: 0.1455 | enrichmentScore, mmu03083 Polycomb repressive complex: 0.08375 | enrichmentScore, mmu03250 Viral life cycle - HIV-1: -0.1606 | enrichmentScore, mmu03410 Base excision repair: 0.1698 | enrichmentScore, mmu03420 Nucleotide excision repair: -0.1542 | enrichmentScore, mmu03430 Mismatch repair: -0.1664 | enrichmentScore, mmu03460 Fanconi anemia pathway: -0.2915 | enrichmentScore, mmu04014 Ras signaling pathway: -0.2302 | enrichmentScore, mmu04068 FoxO signaling pathway: 0.2292 | enrichmentScore, mmu04070 Phosphatidylinositol signaling system: -0.1821 | enrichmentScore, mmu04071 Sphingolipid signaling pathway: -0.1806 | enrichmentScore, mmu04115 p53 signaling pathway: 0.2436 | enrichmentScore, mmu04120 Ubiquitin mediated proteolysis: -0.1841 | enrichmentScore, mmu04130 SNARE interactions in vesicular transport: -0.1753 | enrichmentScore, mmu04136 Autophagy - other: 0.2123 | enrichmentScore, mmu04137 Mitophagy - animal: -0.2835 | enrichmentScore, mmu04140 Autophagy - animal: -0.2 | enrichmentScore, mmu04144 Endocytosis: 0.1533 | enrichmentScore, mmu04146 Peroxisome: 0.2695 | enrichmentScore, mmu04148 Efferocytosis: 0.2467 | enrichmentScore, mmu04150 mTOR signaling pathway: -0.2361 | enrichmentScore, mmu04152 AMPK signaling pathway: -0.2382 | enrichmentScore, mmu04210 Apoptosis: 0.1949
